Earlier results on three compounds are cited in patent publication EP1923060A1, “Combinations of a sphingolipid and an HMG-CoA reductase inhibitor for treating hypercholesterolemia” (Nederlandse Organisatie voor …, priority 2006, dated 2008).

Data set [1] deals with galactosamine-injured primary rat hepatocytes. To be noted: Kim et al., Phytotherapy Res. (2000) 14:448-451.
For data set [2] the following is noted: in humans.
In a further data set the test system is C57bI mice. To be noted: intraperitoneal injection; US 2004/0171557.

As for `CCCCCCCCC/C=C\CC/C=C/[C@@H](O)[C@H](CO[C@@H]1O[C@H](CO)[C@@H](O)[C@H](O)[C@H]1O)NC(=O)CCCCCCCCCCCCCCC` [LCC, 1-O-(β-D-glucopyranosyl)-(2S,3R,4E,8Z)-2-N-palmityloctadecasphinga-4,8-diene], in data set [1], the “release into the culture medium of GPT and SDH” value is “reduce the release”.
With `CCCCCCCCCCCCCC[C@@H](O)[C@@H](O)[C@@H](N)CO` [phytosphingosine], the “plasma (VLDL and LDL) cholesterol and triglyceride levels” value in data set [2] was “demonstrated decisively”.
Regarding glucocerebroside, the liver fat content result in the data set with C57bI mice was “may be reduced”.
